Where “and” joins values, the source holds several entries; their conditions need not be identical. Identical values can stand only once. Like-named read-outs stand apart in the source and are kept apart here. Non-standard residues stand in square brackets, D forms with d. Residues, ends and D or L forms follow the SMILES beside them.
Legend:
[1] = APi2355 concentrations in BALF and tissues at 42 days post-treatment (LC/MS/MS); type: in vivo, rat (Sprague Dawley); details: for BALF concentration / Heart concentration / Kidney concentration / Liver concentration / Lung concentration / Skin concentration: SC 2.0 mg/kg, listed as APi2335, 2 mg/kg, 60480 min; for concentration at 1008 h: rat, sc, 2 mg/kg
[2] = Aqueous solubility; type: physicochemical
[3] = Plasma pharmacokinetics after single-dose subcutaneous administration; type: in vivo, rat (Sprague Dawley); details: for plasma concentration / concentration at 1 h / concentration at 2 h / concentration at 4 h / concentration at 8 h / concentration at 24 h / concentration at 48 h / concentration at 96 h / concentration at 168 h / concentration at 240 h / concentration at 336 h / concentration at 528 h / concentration at 696 h / concentration at 840 h / concentration at 1008 h: SC 2.0 mg/kg, 2 mg/kg; for concentration at 1 h / concentration at 2 h / concentration at 4 h / concentration at 8 h / concentration at 24 h / concentration at 48 h / concentration at 96 h / concentration at 168 h / concentration at 240 h / concentration at 336 h / concentration at 528 h / concentration at 696 h / concentration at 840 h / concentration at 1008 h: rat, plasma, sc
[4] = individual rats, Group 1, MSP #3 (W/O/W)
[5] = individual rats, Group 2, MSP #5 (S/O/W)

CC(=O)N[C@H](C)C(=O)N[C@H](C)C(=O)N[C@@H](CCC(=O)O)C(=O)NCC(=O)N[C@@H](CCCCN)C(=O)N[C@@H](C)C(=O)N[C@@H](CO)C(=O)N[C@@H](Cc1ccccc1)C(=O)N[C@H](C(=O)N[C@H](C(=O)N[C@@H](Cc1ccccc1)C(=O)N[C@H](C(=O)N[C@H](C(=O)N[C@H](C(=O)N[C@@H](CCCCN)C(=O)NCC(=O)N[C@@H](CO)C(=O)N[C@H](C)C(=O)N[C@H](C)C(N)=O)[C@@H](C)O)C(C)C)[C@@H](C)O)[C@@H](C)O)[C@@H](C)O [APi2355, Ac-aaEGKASFTTFTVTKGSaa-NH2] (Ac-[dA][dA]EGKASFTTFTVTKGS[dA][dA]-NH2)
BALF concentration [1, 4]: 5.67 ng/mL and 1.45 ng/mL and 1.89 ng/mL and 1.47 ng/mL and 0.63 ng/mL and 1.53 ng/mL | Heart concentration [1, 4]: 10.46 ng/g and 13.81 ng/g and 8.97 ng/g and 11.09 ng/g and 3.41 ng/g and 8.39 ng/g | Kidney concentration [1, 4]: 63.91 ng/g and 53.55 ng/g and 30.02 ng/g and 62.91 ng/g and 57.32 ng/g and 66.29 ng/g | Liver concentration [1, 4]: 5.46 ng/g and 1.23 ng/g and 0.69 ng/g and 1.85 ng/g and 3.65 ng/g and 2.86 ng/g | Lung concentration [1, 4]: 37.40 ng/g and 29.17 ng/g and 36.51 ng/g and 62.92 ng/g and 36.86 ng/g and 38.80 ng/g | BALF concentration [1, 5]: 0.45 ng/mL and 0.23 ng/mL and 0.70 ng/mL and 0.52 ng/mL and 4.10 ng/mL and 2.17 ng/mL and 0.71 ng/mL | Heart concentration [1, 5]: 14.37 ng/g and 14.17 ng/g and 9.32 ng/g and 7.53 ng/g and 15.87 ng/g and 12.57 ng/g and 16.18 ng/g | Kidney concentration [1, 5]: 31.78 ng/g and 41.08 ng/g and 52.67 ng/g and 38.43 ng/g and 33.98 ng/g and 36.28 ng/g | Liver concentration [1, 5]: 8.34 ng/g and 8.26 ng/g and 0.24 ng/g and 0.47 ng/g and 1.33 ng/g and 4.81 ng/g and 5.22 ng/g | Lung concentration [1, 5]: 35.15 ng/g and 31.08 ng/g and 28.00 ng/g and 53.76 ng/g and 47.20 ng/g and 35.92 ng/g | Skin concentration ([1]; injection site skin, individual rats, Group 1, MSP #3 (W/O/W)): 29.72 ng/g and 13.12 ng/g and 14.02 ng/g and 20.81 ng/g and 2.28 ng/g and 31.92 ng/g | Skin concentration ([1]; injection site skin, individual rats, Group 2, MSP #5 (S/O/W)): 4.08 ng/g and 4.10 ng/g and 2.92 ng/g and 3.69 ng/g and 3.40 ng/g and 14.71 ng/g and 1.60 ng/g | concentration at 1008 h ([1]; balf, mean, Group 1, MSP #3 (W/O/W), read-out: BALF concentration, Avg.): 2.11 ng/mL | concentration at 1008 h ([1]; balf, mean, Group 2, MSP #5 (S/O/W), read-out: BALF concentration, Avg.): 1.27 ng/mL | concentration at 1008 h ([1]; heart, mean, Group 1, MSP #3 (W/O/W), read-out: Heart concentration, Avg.): 9.35 ng/g | concentration at 1008 h ([1]; heart, mean, Group 2, MSP #5 (S/O/W), read-out: Heart concentration, Avg.): 12.9 ng/g | concentration at 1008 h ([1]; injection site skin, injection site skin, mean, Group 1, MSP #3 (W/O/W), read-out: Skin concentration, Avg.): 18.6 ng/g | concentration at 1008 h ([1]; injection site skin, injection site skin, mean, Group 2, MSP #5 (S/O/W), read-out: Skin concentration, Avg.): 4.93 ng/g | concentration at 1008 h ([1]; kidney, individual rats, Group 2, MSP #5 (S/O/W), read-out: Kidney concentration): 33.1 ng/g | concentration at 1008 h ([1]; kidney, mean, Group 1, MSP #3 (W/O/W), read-out: Kidney concentration, Avg.): 55.7 ng/g | concentration at 1008 h ([1]; kidney, mean, Group 2, MSP #5 (S/O/W), read-out: Kidney concentration, Avg.): 38.2 ng/g | concentration at 1008 h ([1]; liver, mean, Group 1, MSP #3 (W/O/W), read-out: Liver concentration, Avg.): 2.62 ng/g | concentration at 1008 h ([1]; liver, mean, Group 2, MSP #5 (S/O/W), read-out: Liver concentration, Avg.): 4.09 ng/g | concentration at 1008 h ([1]; lung, individual rats, Group 2, MSP #5 (S/O/W), read-out: Lung concentration): 35.9 ng/g | concentration at 1008 h ([1]; lung, mean, Group 1, MSP #3 (W/O/W), read-out: Lung concentration, Avg.): 40.3 ng/g | concentration at 1008 h ([1]; lung, mean, Group 2, MSP #5 (S/O/W), read-out: Lung concentration, Avg.): 38.1 ng/g | aqueous solubility [2]: relatively low aqueous solubility | plasma concentration ([3]; 1 hr, individual rats, Group 1, MSP #3 (W/O/W), 60 min): 16.02 ng/mL and 311.08 ng/mL | plasma concentration ([3]; 2 hr, individual rats, Group 1, MSP #3 (W/O/W), 120 min): 350.92 ng/mL and 558.41 ng/mL | plasma concentration ([3]; 4 hr, individual rats, Group 1, MSP #3 (W/O/W), 240 min): 501.64 ng/mL and 36.54 ng/mL | plasma concentration ([3]; 8 hr, individual rats, Group 1, MSP #3 (W/O/W), 480 min): 39.13 ng/mL and 12.62 ng/mL | plasma concentration ([3]; 1 day, individual rats, Group 1, MSP #3 (W/O/W), 1440 min): 34.98 ng/mL and 10.17 ng/mL | plasma concentration ([3]; 2 day, individual rats, Group 1, MSP #3 (W/O/W), 2880 min): 3.46 ng/mL | plasma concentration ([3]; 4 day, individual rats, Group 1, MSP #3 (W/O/W), 5760 min): 1.90 ng/mL | plasma concentration ([3]; 7 day, individual rats, Group 1, MSP #3 (W/O/W), 10080 min): 5.66 ng/mL | plasma concentration ([3]; 10 day, individual rats, Group 1, MSP #3 (W/O/W), 14400 min): 2.17 ng/mL | plasma concentration ([3]; 14 day, individual rats, Group 1, MSP #3 (W/O/W), 20160 min): 6.77 ng/mL and 6.89 ng/mL | plasma concentration ([3]; 22 day, individual rats, Group 1, MSP #3 (W/O/W), 31680 min): 7.52 ng/mL and 9.84 ng/mL | plasma concentration ([3]; 29 day, individual rats, Group 1, MSP #3 (W/O/W), 41760 min): 0.91 ng/mL and 1.57 ng/mL | plasma concentration ([3]; 35 day, individual rats, Group 1, MSP #3 (W/O/W), 50400 min): 0.32 ng/mL and 0.48 ng/mL | plasma concentration ([3]; 42 day, individual rats, Group 1, MSP #3 (W/O/W), 60480 min): 0.11 ng/mL and 4.85 ng/mL | fraction of total exposure in the first 3 weeks after SC administration ([3]; first 3 weeks, SC 2.0 mg/kg APi2355): Approximately ⅔ | concentration at 1 h ([3]; 1 hr, mean, Group 1, MSP #3 (W/O/W)): 157 ng/mL | concentration at 1 h ([3]; 1 hr, mean, Group 2, MSP #5 (S/O/W)): 175 ng/mL | concentration at 2 h ([3]; 2 hr, mean, Group 1, MSP #3 (W/O/W)): 198 ng/mL | concentration at 2 h ([3]; 2 hr, mean, Group 2, MSP #5 (S/O/W)): 287 ng/mL | concentration at 4 h ([3]; 4 hr, mean, Group 1, MSP #3 (W/O/W)): 185 ng/mL | concentration at 4 h ([3]; 4 hr, mean, Group 2, MSP #5 (S/O/W)): 195 ng/mL | concentration at 8 h ([3]; 8 hr, mean, Group 1, MSP #3 (W/O/W)): 195 ng/mL | concentration at 8 h ([3]; 8 hr, mean, Group 2, MSP #5 (S/O/W)): 130 ng/mL | concentration at 24 h ([3]; 1 day, mean, Group 1, MSP #3 (W/O/W)): 10.7 ng/mL | concentration at 24 h ([3]; 1 day, mean, Group 2, MSP #5 (S/O/W)): 9.53 ng/mL | concentration at 48 h ([3]; 2 day, mean, Group 1, MSP #3 (W/O/W)): 3.2 ng/mL | concentration at 48 h ([3]; 2 day, mean, Group 2, MSP #5 (S/O/W)): 5.23 ng/mL | concentration at 96 h ([3]; 4 day, mean, Group 1, MSP #3 (W/O/W)): 3.22 ng/mL | concentration at 96 h ([3]; 4 day, mean, Group 2, MSP #5 (S/O/W)): 3.69 ng/mL | concentration at 168 h ([3]; 7 day, mean, Group 1, MSP #3 (W/O/W)): 3.34 ng/mL | concentration at 168 h ([3]; 7 day, mean, Group 2, MSP #5 (S/O/W)): 3.37 ng/mL | concentration at 240 h ([3]; 10 day, mean, Group 1, MSP #3 (W/O/W)): 5.22 ng/mL | concentration at 240 h ([3]; 10 day, mean, Group 2, MSP #5 (S/O/W)): 10.5 ng/mL | concentration at 336 h ([3]; 14 day, individual rats, Group 2, MSP #5 (S/O/W), read-out: plasma concentration): 0.98 ng/mL | concentration at 336 h ([3]; 14 day, mean, Group 1, MSP #3 (W/O/W), read-out: plasma concentration, Avg.): 5.41 ng/mL | concentration at 336 h ([3]; 14 day, mean, Group 2, MSP #5 (S/O/W), read-out: plasma concentration, Avg.): 1.14 ng/mL | concentration at 528 h ([3]; 22 day, mean, Group 1, MSP #3 (W/O/W)): 6.35 ng/mL | concentration at 528 h ([3]; 22 day, mean, Group 2, MSP #5 (S/O/W)): 5.26 ng/mL | concentration at 696 h ([3]; 29 day, mean, Group 1, MSP #3 (W/O/W)): 2.53 ng/mL | concentration at 696 h ([3]; 29 day, mean, Group 2, MSP #5 (S/O/W)): 2 ng/mL | concentration at 840 h ([3]; 35 day, mean, Group 1, MSP #3 (W/O/W)): 0.57 ng/mL | concentration at 840 h ([3]; 35 day, mean, Group 2, MSP #5 (S/O/W)): 0.26 ng/mL | concentration at 1008 h ([3]; 42 day, mean, Group 1, MSP #3 (W/O/W)): 1.2 ng/mL | concentration at 1008 h ([3]; 42 day, mean, Group 2, MSP #5 (S/O/W)): 0.72 ng/mL

From patent US20260364145A1, “MODIFIED CAVEOLIN-1 PEPTIDE FORMULATIONS AND METHODS OF MANUFACTURING AND USE THEREOF” (REIN THERAPEUTICS, INC., priority 2023, published 2026)
